# Assay results published in PubChem BioAssay (NCI).
# Where “and” joins values, the source holds several entries; their conditions need not be identical. Equal values may be shown once.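 Five compound concentrations were applied to cells in 96-well plates for 48 hours; endpoints were derived by simple linear interpolation of the resulting dose-response curve. Abbreviation: GI50, concentration required for 50% inhibition of growth. TGI marks complete inhibition of growth.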
# How the values were obtained:
# Experiment in all cases: growth of human tumour cells (NCI), 48 h
# HCT-15 colon = test system: HCT-15 colon
# BT-549 breast = test system: BT-549 breast
# T-47D breast = test system: T-47D breast
# HT29 colon = test system: HT29 colon
# A549 NSCLC = test system: A549 NSCLC
# MALME-3M melanoma = test system: MALME-3M melanoma
# HCT-116 colon = test system: HCT-116 colon
# SK-MEL-28 melanoma = test system: SK-MEL-28 melanoma
# SF-539 CNS = test system: SF-539 CNS
# SR leukemia = test system: SR leukemia
smiles,measurement,setting,value
CCCNC(C#N)c1ccc(C(C#N)NCCC)cc1 (stereo unspecified),TGI,HCT-15 colon,> 100 µM
same,TGI,BT-549 breast,> 100 µM
same,TGI,T-47D breast,> 100 µM
same,TGI,HT29 colon,> 100 µM
same,TGI,A549 NSCLC,> 100 µM
same,TGI,MALME-3M melanoma,> 100 µM
same,TGI,HCT-116 colon,> 100 µM
same,TGI,SK-MEL-28 melanoma,> 100 µM
same,TGI,SF-539 CNS,> 100 µM
c1ccc2c(c1)nc(NC1CCCC1)c1[nH]c(C3CCCC3)nc12,TGI,HCT-15 colon,28.3 µM
same,TGI,SR leukemia,63.5 µM
same,TGI,HT29 colon,20.1 µM
same,TGI,A549 NSCLC,58.8 µM
same,TGI,MALME-3M melanoma,30.7 µM
same,TGI,HCT-116 colon,17.6 µM
same,TGI,SK-MEL-28 melanoma,28.3 µM
same,TGI,SF-539 CNS,21.1 µM
c1ccc2c(c1)CCc1cc3cc4c(nc3nc1-2)-c1ccccc1CC4,TGI,HCT-15 colon,> 100 µM
same,TGI,SR leukemia,> 100 µM
same,TGI,A549 NSCLC,> 100 µM
same,TGI,MALME-3M melanoma,> 100 µM
same,TGI,HCT-116 colon,> 100 µM
same,TGI,SK-MEL-28 melanoma,> 100 µM
same,TGI,SF-539 CNS,> 100 µM
CC(=O)OC(OC(C)=O)n1cc(C=O)c2ccccc21,TGI,HCT-15 colon,> 100 µM
same,TGI,SR leukemia,> 100 µM
same,TGI,T-47D breast,> 100 µM
same,TGI,HT29 colon,> 100 µM
same,TGI,A549 NSCLC,> 100 µM
same,TGI,HCT-116 colon,> 100 µM
same,TGI,SK-MEL-28 melanoma,> 100 µM
O=C(c1ccccc1)c1ccc2nc(-c3c(Cl)c(Cl)c(Cl)c(Cl)c3C(=O)N/N=C/c3ccccc3)[nH]c2c1,TGI,HCT-15 colon,> 100 µM
same,TGI,BT-549 breast,> 100 µM
same,TGI,T-47D breast,74.3 µM
same,TGI,HT29 colon,> 100 µM
same,TGI,A549 NSCLC,> 100 µM
same,TGI,MALME-3M melanoma,83 µM
same,TGI,HCT-116 colon,> 100 µM
same,TGI,SK-MEL-28 melanoma,> 100 µM
same,TGI,SF-539 CNS,> 100 µM
O=c1[nH]nc(-c2ccccc2)n1/N=C/c1c(O)ccc2ccccc12,TGI,HCT-15 colon,> 100 µM
same,TGI,BT-549 breast,> 100 µM
same,TGI,SR leukemia,> 100 µM
same,TGI,HT29 colon,> 100 µM
same,TGI,A549 NSCLC,> 100 µM
same,TGI,HCT-116 colon,> 100 µM
same,TGI,SK-MEL-28 melanoma,> 100 µM
same,TGI,SF-539 CNS,> 100 µM
NCCNc1cccc2ccccc12,TGI,HCT-15 colon,> 100 µM
same,TGI,SR leukemia,> 100 µM
same,TGI,HT29 colon,> 100 µM
same,TGI,A549 NSCLC,> 100 µM
same,TGI,MALME-3M melanoma,> 100 µM
same,TGI,HCT-116 colon,> 100 µM
same,TGI,SF-539 CNS,> 100 µM
CSC1=C(C#N)C(=O)N(c2ccc(C)cc2)C(=S)C1C#N (stereo unspecified),TGI,HCT-15 colon,> 100 µM
same,TGI,BT-549 breast,> 100 µM
same,TGI,HT29 colon,> 100 µM
same,TGI,A549 NSCLC,> 100 µM
same,TGI,MALME-3M melanoma,> 100 µM
same,TGI,HCT-116 colon,> 100 µM
same,TGI,SK-MEL-28 melanoma,> 100 µM
same,TGI,SF-539 CNS,> 100 µM
CC(C)(C)C(=O)ON1N=NC2C3CC(OCc4ccccc4)(OCc4ccccc4)C(O3)C21 (stereo unspecified),TGI,HCT-15 colon,56.3 µM
same,TGI,HT29 colon,47.9 µM
same,TGI,A549 NSCLC,> 100 µM
same,TGI,MALME-3M melanoma,31.2 µM
same,TGI,SK-MEL-28 melanoma,35.3 µM
same,TGI,SF-539 CNS,31 µM
Cc1cccc(C2=NC(C)(C)C(C)(C)N=C2c2cccc(C)n2)n1,TGI,HCT-15 colon,> 100 µM
same,TGI,HT29 colon,> 100 µM
same,TGI,A549 NSCLC,> 100 µM
same,TGI,MALME-3M melanoma,> 100 µM
same,TGI,HCT-116 colon,> 100 µM
same,TGI,SK-MEL-28 melanoma,> 100 µM
same,TGI,SF-539 CNS,> 100 µM
COC(=O)/C=C/c1cc(O)c2c(c1)[C@H](C(=O)OC)[C@@H](c1ccc(O)c(O)c1)O2,TGI,HCT-15 colon,> 100 µM
same,TGI,BT-549 breast,30.3 µM
same,TGI,HT29 colon,> 37.9 µM
same,TGI,A549 NSCLC,> 100 µM
same,TGI,HCT-116 colon,> 72 µM
same,TGI,SK-MEL-28 melanoma,> 71 µM
Cc1cccc(NC(=O)C(=O)C(C(=O)c2ccccc2F)C2OC(=O)c3ccccc32)c1Cl (stereo unspecified),TGI,HCT-15 colon,73.3 µM
same,TGI,SR leukemia,> 100 µM
same,TGI,HT29 colon,> 100 µM
same,TGI,A549 NSCLC,> 100 µM
same,TGI,HCT-116 colon,45.3 µM
same,TGI,SK-MEL-28 melanoma,> 100 µM
same,TGI,SF-539 CNS,40.4 µM
CCSC1=C(C)N(C=NC(C)(C)C)CC1,TGI,HCT-15 colon,> 100 µM
same,TGI,SR leukemia,> 100 µM
same,TGI,HT29 colon,> 100 µM
same,TGI,A549 NSCLC,> 100 µM
same,TGI,MALME-3M melanoma,> 100 µM
same,TGI,HCT-116 colon,> 100 µM
same,TGI,SK-MEL-28 melanoma,> 100 µM
same,TGI,SF-539 CNS,> 100 µM
O=[Se](=O)c1ccccc1.O=[Se](=O)c1ccccc1.[Cu],GI50,HCT-15 colon,16.4 µM
same,TGI,HCT-15 colon,34.1 µM
same,GI50,HT29 colon,17.2 µM
same,TGI,HT29 colon,39.2 µM
same,GI50,A549 NSCLC,26 µM
same,TGI,A549 NSCLC,52.2 µM
same,GI50,MALME-3M melanoma,16.8 µM
same,TGI,MALME-3M melanoma,31.7 µM
same,GI50,HCT-116 colon,17.4 µM
same,TGI,HCT-116 colon,33 µM
same,GI50,SK-MEL-28 melanoma,16.6 µM
same,TGI,SK-MEL-28 melanoma,30.7 µM
same,GI50,SF-539 CNS,16.4 µM
same,TGI,SF-539 CNS,30.6 µM
COC(=O)c1cc(C#N)[nH]c1-c1ccc(C)s1,TGI,HCT-15 colon,> 100 µM
same,TGI,BT-549 breast,> 100 µM
same,TGI,SR leukemia,> 100 µM
same,TGI,T-47D breast,> 100 µM
same,TGI,A549 NSCLC,> 100 µM
same,TGI,HCT-116 colon,> 100 µM
same,TGI,SK-MEL-28 melanoma,> 100 µM
same,TGI,SF-539 CNS,> 100 µM
NC(=O)C#CC(N)=O,GI50,HCT-15 colon,20 µM and 26.2 µM and > 100 µM
same,TGI,HCT-15 colon,76.2 µM and 100 µM and > 100 µM
same,TGI,SR leukemia,36.3 µM
same,GI50,HT29 colon,31.2 µM and 17 µM
same,TGI,HT29 colon,131 µM and 35.4 µM and > 100 µM
same,GI50,A549 NSCLC,49.4 µM
same,TGI,A549 NSCLC,173 µM and 189 µM and > 100 µM
same,GI50,MALME-3M melanoma,5.74 µM
same,TGI,MALME-3M melanoma,19.7 µM and 18.1 µM
same,GI50,HCT-116 colon,15.1 µM and 37.5 µM
same,TGI,HCT-116 colon,29.5 µM and > 100 µM
same,GI50,SK-MEL-28 melanoma,8.21 µM and 5.85 µM
same,TGI,SK-MEL-28 melanoma,20 µM and 15.6 µM and 27 µM
same,TGI,SF-539 CNS,46.3 µM and 68.9 µM
CCCCc1ccc(Nc2ncc3[nH]cnc3n2)cc1,TGI,HCT-15 colon,38.5 µM
same,TGI,BT-549 breast,52.8 µM
same,TGI,T-47D breast,61 µM
same,TGI,HT29 colon,44.8 µM
same,TGI,A549 NSCLC,53.2 µM
same,TGI,MALME-3M melanoma,40.6 µM
same,TGI,HCT-116 colon,34.5 µM
same,TGI,SF-539 CNS,56.5 µM
COC(=O)/C=C1\CCC(C)(C(=O)NS(=O)(=O)c2ccc(C)cc2)C1(C)C (stereo unspecified),TGI,HCT-15 colon,> 100 µM
same,TGI,BT-549 breast,> 100 µM
same,TGI,T-47D breast,> 100 µM
same,TGI,A549 NSCLC,> 100 µM
same,TGI,MALME-3M melanoma,> 100 µM
same,TGI,HCT-116 colon,> 100 µM
same,TGI,SF-539 CNS,> 100 µM
CCOC(=O)CNC(=O)C(C)NC(=O)C(NC(=O)CC(c1ncc[nH]1)c1ncc[nH]1)C(C)CC (stereo unspecified),TGI,HCT-15 colon,> 100 µM
same,TGI,SR leukemia,> 100 µM
same,TGI,T-47D breast,> 100 µM
same,TGI,A549 NSCLC,> 100 µM
same,TGI,MALME-3M melanoma,> 100 µM
same,TGI,HCT-116 colon,> 100 µM
same,TGI,SK-MEL-28 melanoma,> 100 µM
same,TGI,SF-539 CNS,> 100 µM
Nc1ccccc1N/C=C\C(=O)C(Cl)(Cl)Cl,TGI,HCT-15 colon,46.1 µM
same,TGI,BT-549 breast,58.6 µM
same,TGI,T-47D breast,43.1 µM
same,TGI,HT29 colon,34.6 µM
same,TGI,A549 NSCLC,> 100 µM
same,TGI,MALME-3M melanoma,> 100 µM
same,TGI,HCT-116 colon,29.7 µM
same,TGI,SK-MEL-28 melanoma,42.8 µM
same,TGI,SF-539 CNS,> 100 µM
O=C1Nc2cc([N+](=O)[O-])ccc2NC1/C(=N\Nc1ccccc1)C(O)c1cccc([N+](=O)[O-])c1 (stereo unspecified),TGI,HCT-15 colon,44.7 µM
same,TGI,HT29 colon,> 100 µM
same,TGI,A549 NSCLC,> 100 µM
same,TGI,MALME-3M melanoma,> 100 µM
same,TGI,HCT-116 colon,> 100 µM
same,TGI,SK-MEL-28 melanoma,> 100 µM
same,TGI,SF-539 CNS,> 100 µM
CC(CO)C1C[C@H](O)[C@@]2(C)CC(=O)C=C(CO)[C@@H]2C1 (stereo partly specified),TGI,HCT-15 colon,> 100 µM
same,TGI,BT-549 breast,> 100 µM
same,TGI,T-47D breast,> 100 µM
same,TGI,HT29 colon,> 100 µM
same,TGI,A549 NSCLC,> 100 µM
same,TGI,HCT-116 colon,> 100 µM
same,TGI,SK-MEL-28 melanoma,> 100 µM
same,TGI,SF-539 CNS,> 100 µM
N#C[S-].[Nd+3].c1ccc(-c2ccccn2)nc1.c1ccc(-c2ccccn2)nc1.c1ccc(-c2ccccn2)nc1,GI50,HCT-15 colon,3.82 µM
same,TGI,HCT-15 colon,> 100 µM
same,GI50,SR leukemia,6.9 µM
same,TGI,SR leukemia,> 100 µM
same,GI50,HT29 colon,4.83 µM
same,TGI,HT29 colon,> 100 µM
same,GI50,A549 NSCLC,4.94 µM
same,TGI,A549 NSCLC,> 100 µM
same,GI50,MALME-3M melanoma,18.5 µM
same,TGI,MALME-3M melanoma,68.4 µM
same,GI50,HCT-116 colon,8.4 µM
same,TGI,HCT-116 colon,> 100 µM
same,GI50,SK-MEL-28 melanoma,13.7 µM
same,TGI,SK-MEL-28 melanoma,> 100 µM
same,GI50,SF-539 CNS,3.78 µM
same,TGI,SF-539 CNS,> 100 µM
